Test results reported in paper PMC9663578, “A fluorogenic probe for predicting treatment response in non-small cell lung cancer with EGFR-activating mutations” (Nature Communications, 2022).
Where “and” joins values, the source holds several entries; their conditions need not be identical. Identical values can stand only once.

Key:
EGFR T790M = biological target: T1, EGFR T790M (Homo sapiens, UniProt P00533, T790M); assay: Fluorescence turn-on response / titration of HX103 with recombinant EGFR;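 for Fluorescence intensity at 570 nm: 100% is HX103 fluorescence with wild-type EGFR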; format: binding; details: for Fluorescence intensity, T790M: Fig. 2c; for Fluorescence response of HX103 to EGFR T790M: Supplementary Fig. 2f
T1 construct: EGFR T790M (amino acids 668–1210, #PR8052A); purchased Thermo Fisher PR8052A
Description: (d) Fluorescence spectra change of HX103 (5 µ M) with increasing concentration of EGFR L858R
(e) Fluorescence spectra change of HX103 (5 µ M ) with
increasing concentration of EGFR 19del (0 to 6 µM) in PBS buffer. (f) Titration curve of HX103
(5 µM) with increasing concentration of EGFRs (0 to 6 µM). The apparent binding affinity (Kd)
The fluorescence titration curve was fitted on one -
site specific binding model. I and I0 represent the intensities of HX103 at 570 nm in the presence
and absence of protein. Data represent average val ues ± SD, n = 3 independent experiments per
dissolved in dimethyl sulfoxide (DMSO) to obtain stock solutions (10 mM). The prepared stock
solution was diluted in sodium phosphate buffer (PBS, 1 M, pH=7.4) to obtain the desired final
concentration solution, containing 0.1% (v/v) DMSO as a cosolvent.
and emission fluorescence spectra of the solution before/after addition o f different concentration
Data analysis：The obtained fluorescence intensity at 570 nm (Excitation wavelength was 440
nm) in each sample was normalized by using the fluorescence intensity of HX103 in the presence
of EGFR. Specifically, the fluorescence intensity of HX103 in the presence of EGFR wild-type
was set at 100% to normalized that of the remaining samples.

MTT cytotoxicity assay = format: cell-based; details: human, A431 cells, EGFR wild-type, n=3
A431 = assay: Western blot of EGFR activation and downstream AKT and ERK1/2 phosphorylation; format: cell-based, human
Description: (§1) Western blotting analysis was performed to investigate the expression of EGFR and downstream signaling pathway in various cancer cells. Cells were added at a density of 5 × 10^5 per well in six-well plates and serum-starved in DMEM without FBS. […] After a PBS washing step, the cells were harvested and lysed in RIPA lysis buffer (Thermo Scientific, #89900) on ice for 20 min. After sonication, cell lysates were centrifuged at 12,000×g at 4 °C for 20 min. The supernatant was collected and protein concentration was determined by a BCA protein quantitation kit (Vazyme) and normalized to 2 mg/mL. Subsequently, 20 µL of protein sample was loaded to each lane and resolved on a 10% SDS-PAGE gel. After that, proteins on the gel were transferred onto polyvinylidene difluoride (PVDF) membranes (0.45 µm, Amersham Bioscience). PVDF membranes were blocked with 5% BSA blocking solution for 2 h at room temperature, followed by incubation with different primary antibodies (4 °C, overnight), including EGFR (#4267, 1:1000), phospho-EGFR (#3777, 1:1000), Akt (#4685, 1:1000), phospho-Akt (#4060, 1:1000), ERK1/2 (#4695, 1:1000), phospho-ERK1/2 (#4370, 1:2000) and GAPDH (#5174, 1:2000). Next, the membranes were washed by TBST buffer (Tris buffer with 0.1% Tween-20) for three times, followed by incubation with anti-rabbit IgG (HRP-linked antibody, #7074, 1:5000) for 1 h at room temperature. Finally, the blots were washed in PBST and immunoreactive proteins were detected using a luminal solution with ECL enhancer and H2O2 by ChemiDoc MP (BioRad) with Image Lab 6.0 software. The band density of each band was quantified and normalized to that of the corresponding GAPDH band to correct the possible differences in the content of protein loading. Each experiment was repeated 3 times for statistical analysis, and uncropped blots are in Source Data.

A549 = assay: as above; format: cell-based, human; details: for p-kinase / kinase pAKT/AKT / p-kinase / kinase pEGFR/EGFR / p-kinase / kinase pERK/ERK: Fig. 2j A549, DMSO = 1, n=1-3
Description: as §1

H1975 = assay: as above; format: cell-based, human; details: for p-kinase / kinase pAKT/AKT / p-kinase / kinase pEGFR/EGFR / p-kinase / kinase pERK/ERK: Fig. 2h H1975, DMSO = 1, n=1-3
Description: as §1

HCC827 = assay: as above; format: cell-based, human
Description: as §1

Hela = assay: as above; format: cell-based, human; details: HX103 0 to 10 µM, EGF 25 ng/mL
Description: as §1

H1975 cells = assay: Subcellular co-localization of HX103 (confocal); format: cell-based, human; details: HX103 5 µM, 0.5 h, ER/Mito/Lyso trackers
Description: Supplementary Figure 6. Application of HX103 in living cells. (a-c) Subcellular co-localization of HX103 with Lyso tracker (a), Mito tracker (b) or ER tracker (c). H1975 cells were treated with HX103 (5 µM, 0.5 h) and stained with Lyso tracker ([…], 30 min), Mito tracker (100 nM, 15 min) or ER tracker (500 nM, 15 min). After a PBS washing, the cells were used for confocal microscopy. Scale bar, 20 µm. Three biological independent experiments were repeated with similar results. (d) The mean fluorescence intensity analysis along white arrows in the overlay image in (a-c). Source data are provided as a Source Data file.
(1 picture or pasted object on this page, not shown here)

BSA = BSA (Bos taurus, UniProt P02769); assay: Fluorescence response of HX103 with BSA (control protein); format: binding; details: Fig. 2d, n=1-3
Sequence of BSA (P02769 25-607): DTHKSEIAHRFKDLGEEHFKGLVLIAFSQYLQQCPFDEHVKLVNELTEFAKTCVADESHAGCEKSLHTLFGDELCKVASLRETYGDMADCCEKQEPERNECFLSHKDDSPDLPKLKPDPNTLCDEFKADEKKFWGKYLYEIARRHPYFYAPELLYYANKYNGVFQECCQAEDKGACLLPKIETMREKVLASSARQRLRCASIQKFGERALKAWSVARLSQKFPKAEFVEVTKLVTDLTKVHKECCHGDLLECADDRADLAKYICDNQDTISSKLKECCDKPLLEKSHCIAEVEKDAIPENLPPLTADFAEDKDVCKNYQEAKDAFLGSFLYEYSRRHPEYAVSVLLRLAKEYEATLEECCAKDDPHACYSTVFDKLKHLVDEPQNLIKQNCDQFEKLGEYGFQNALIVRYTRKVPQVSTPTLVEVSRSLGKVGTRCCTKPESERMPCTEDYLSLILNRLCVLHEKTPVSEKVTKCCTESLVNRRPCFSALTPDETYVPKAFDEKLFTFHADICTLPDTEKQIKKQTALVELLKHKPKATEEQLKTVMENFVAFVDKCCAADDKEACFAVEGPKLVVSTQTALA

Jurkat cells = assay: FACS assay in cultured cells
Description: The FACS assay was performed according to the reported literatures[67],[68]. Briefly, the cultured cells were seeded on the petri dish and counted using Count star BioMed automated cell counter. Around 10^6 live-cells were collected and were pelleted (2000×g, 3 min), followed by washing with PBS (2x). Cells were then resuspended in PBS buffer containing 0.1% BSA (1 × 10^6 cells/mL). […] The cell suspension was resuspended in PBS and analyzed with a FACSVerse^TM flow cytometer (BD Biosciences, LSRFortessa). About 10,000 events per tube were analyzed and the mean fluorescence intensity was detected and analyzed.
For the FACS assay with EGFR antibody, around 10^6 live-cells were collected and washed with PBS (2x). The cells were fixed by 400 µL 4% paraformaldehyde for 15 min at room temperature, followed by permeabilization with 0.1% Triton X-100 for 10 min and blocking with 5% BSA for 30 min. […] The cells were then washed with 0.5% BSA/PBS (3x) and resuspended in 400 µL of 0.1% BSA/PBS. […] The resuspended cell suspension was then analyzed on a FACSVerseTM flow cytometer (BD Biosciences, LSRFortessa). Nonspecific fluorescence binding was omitted by Rabbit mAb IgG isotype control (#3900, CST, 1:100) and the corresponding mean fluorescence was subtracted from the signal measured with each primary antibody. About 10,000 events per tube were analyzed and the mean fluorescence intensity was detected and analyzed.
Subsequently, the treated cells were incubated for 30 min at 37 °C, followed by washing with PBS buffer three times. […] Finally, the co-stained cells were washed with 0.5% BSA/PBS for three times and resuspended in 400 µL of 0.1% BSA/PBS. The obtained cell suspension was ready for analysis. Nonspecific fluorescence binding was omitted by Rabbit mAb IgG isotype control (#3900, CST, 1:100) as described above.
Nonspecific fluorescence binding was omitted by Rabbit mAb IgG isotype control (#3900, CST, 1:100). […] After incubation for another 30 min at room temperature, the co-stained cells were washed with 0.5% BSA/PBS for three times and resuspended in 400 µL of 0.1% BSA/PBS. The obtained cell suspension was ready for analysis. Nonspecific fluorescence binding was omitted by Rabbit mAb IgG isotype control (#3900, CST, 1:100) as described above.
The cells were seeded on the petri dish and cultured at the normal condition with 10% FBS, and that was changed to serum-free condition for 24 h when the cells proliferated at ~80% confluence. […] Nonspecific fluorescence binding was omitted by Rabbit mAb IgG isotype control (#3900, CST, 1:100) as described above.

[1] = Fig. 2i A431, concentration 0.3 (unit not given), DMSO = 1, n=1-3
[2] = Fig. 2i A431, concentration 1 (unit not given), DMSO = 1, n=1-3
[3] = Fig. 2i A431, concentration 3 (unit not given), DMSO = 1, n=1-3
[4] = Fig. 2i A431, concentration 10 (unit not given), DMSO = 1, n=1-3
[5] = concentration 0.3 (unit not given)
[6] = concentration 1 (unit not given)
[7] = concentration 3 (unit not given)
[8] = concentration 10 (unit not given)

## COc1cc2c(Nc3ccc(F)c(Cl)c3)ncnc2cc1OCCCNc1ccc(S(=O)(=O)N(C)C)c2nonc12 [HX103]
EGFR T790M; wavelength 666 nm
  Fluorescence intensity, T790M: 2748.26
EGFR T790M; wavelength 669 nm
  Fluorescence intensity, T790M: 2609.98
EGFR T790M; wavelength 671 nm
  Fluorescence intensity, T790M: 2444.87
EGFR T790M; wavelength 673 nm
  Fluorescence intensity, T790M: 2257.89
EGFR T790M; wavelength 676 nm
  Fluorescence intensity, T790M: 2067.13
EGFR T790M; wavelength 678 nm
  Fluorescence intensity, T790M: 1891.35
EGFR T790M; wavelength 681 nm
  Fluorescence intensity, T790M: 1749.2
EGFR T790M; wavelength 683 nm
  Fluorescence intensity, T790M: 1648.24
EGFR T790M; wavelength 686 nm
  Fluorescence intensity, T790M: 1577.34
EGFR T790M; wavelength 688 nm
  Fluorescence intensity, T790M: 1523.55
EGFR T790M; wavelength 690 nm
  Fluorescence intensity, T790M: 1473.92
EGFR T790M; wavelength 693 nm
  Fluorescence intensity, T790M: 1419.2
EGFR T790M; wavelength 695 nm
  Fluorescence intensity, T790M: 1359.54
EGFR T790M; wavelength 698 nm
  Fluorescence intensity, T790M: 1296.59
EGFR T790M; wavelength 700 nm
  Fluorescence intensity, T790M: 1231.99
EGFR T790M; Fig. 2d, HX103 with EGFR T790M, n=1-3
  Fluorescence intensity at 570 nm: 62.6243 and 56.177 and 61.7341
EGFR T790M; HX103 5 µM in PBS buffer (0.1% DMSO), 570 nm
  fluorescence turn-on response: relatively low fluorescence
EGFR T790M; HX103 5 µM, EGFR 0 to 6 µM in PBS, one-site specific binding model, read-out: apparent binding affinity (Kd)
  Kd: 6.6 ± 4.6 µM
EGFR T790M; EGFR 0.1 µM, n=1-3
  Fluorescence response of HX103 to EGFR T790M: 0.8143 and 0.8764 and 0.5043
EGFR T790M; EGFR 0.5 µM, n=1-3
  Fluorescence response of HX103 to EGFR T790M: 1.381 and 1.689 and 1.392
EGFR T790M; EGFR 1 µM, n=1-3
  Fluorescence response of HX103 to EGFR T790M: 1.713 and 2.039 and 1.744
EGFR T790M; EGFR 6 µM, n=1-3
  Fluorescence response of HX103 to EGFR T790M: 6.037 and 7.198 and 5.58
MTT cytotoxicity assay
  IC50 at 48 h: 26 µM
A431; [1]
  p-kinase / kinase pAKT/AKT: 0.604 and 0.491 and 0.502
  p-kinase / kinase pERK/ERK: 0.593 and 0.802 and 0.793
A431; [2]
  p-kinase / kinase pAKT/AKT: 0.33 and 0.312 and 0.321
  p-kinase / kinase pERK/ERK: 0.301 and 0.442 and 0.417
A431; [3]
  p-kinase / kinase pAKT/AKT: 0.264 and 0.189 and 0.222
  p-kinase / kinase pERK/ERK: 0.169 and 0.13 and 0.175
A431; [4]
  p-kinase / kinase pAKT/AKT: 0.241 and 0.197 and 0.219
  p-kinase / kinase pEGFR/EGFR: 0.067 and 0.066 and 0.064
A431; HX103 0 to 10 µM, EGF 25 ng/mL
  effect on wild-type EGFR phosphorylation: significantly inhibited
A549; [5]
  p-kinase / kinase pAKT/AKT: 0.202 and 0.332 and 0.222
  p-kinase / kinase pEGFR/EGFR: 0.116 and 0.065 and 0.105
  p-kinase / kinase pERK/ERK: 0.558 and 0.86 and 0.689
A549; [6]
  p-kinase / kinase pAKT/AKT: 0.118 and 0.103 and 0.095
  p-kinase / kinase pERK/ERK: 0.486 and 0.455 and 0.485
A549; [7]
  p-kinase / kinase pEGFR/EGFR: 0.07 and 0.045 and 0.073
  p-kinase / kinase pERK/ERK: 0.34 and 0.535 and 0.512
A549; [8]
  p-kinase / kinase pAKT/AKT: 0.014 and 0.013 and 0.015
  p-kinase / kinase pERK/ERK: 0.39 and 0.424 and 0.512
A549; HX103 0 to 10 µM, EGF 25 ng/mL
  effect on wild-type EGFR phosphorylation: significantly inhibited
H1975; [5]
  p-kinase / kinase pAKT/AKT: 0.698 and 0.724 and 0.636
  p-kinase / kinase pEGFR/EGFR: 0.558 and 0.543 and 0.573
  p-kinase / kinase pERK/ERK: 1.210 and 0.879 and 1.031
H1975; [6]
  p-kinase / kinase pAKT/AKT: 0.488 and 0.317
  p-kinase / kinase pEGFR/EGFR: 0.199 and 0.313 and 0.331
  p-kinase / kinase pERK/ERK: 0.535 and 0.443 and 0.459
H1975; [7]
  p-kinase / kinase pAKT/AKT: 0.579 and 0.573 and 0.560
  p-kinase / kinase pERK/ERK: 0.840 and 0.618 and 0.696
H1975; [8]
  p-kinase / kinase pAKT/AKT: 0.468 and 0.342 and 0.500
  p-kinase / kinase pEGFR/EGFR: 0.219 and 0.161 and 0.276
  p-kinase / kinase pERK/ERK: 0.660 and 0.681 and 0.939
H1975; HX103 0 to 10 µM, EGF 25 ng/mL
  effect on phosphorylation of EGFR and downstream proteins: a certain resistance
HCC827; Fig. 2g HCC827, concentration 0.3 (unit not given), DMSO = 1, n=1-3
  p-kinase / kinase pAKT/AKT: 0.4984 and 0.298 and 0.4432
HCC827; Fig. 2g HCC827, concentration 1 (unit not given), DMSO = 1, n=1-3
  p-kinase / kinase pAKT/AKT: 0.1684 and 0.1251 and 0.1468
HCC827; Fig. 2g HCC827, concentration 10 (unit not given), DMSO = 1, n=1-3
  p-kinase / kinase pERK/ERK: 0.1947 and 0.3677 and 0.3512
HCC827; HX103 0 to 10 µM, EGF 25 ng/mL
  effect on phosphorylation of EGFR and downstream proteins: inhibited the phosphorylation of EGFR and the downstream proteins
Hela
  effect on wild-type EGFR phosphorylation: significantly inhibited
H1975 cells
  subcellular distribution of HX103-labeled EGFR: internalized and translocated in the endoplasmic reticulum
BSA
  Fluorescence intensity at 570 nm: 39.1473 and 21.3173 and 35.8927
Jurkat cells; HX103 5 µM, 30 min, replicates n=1-3
  normalized MFI of HX103 labeling: 17.5966% and 26.6094% and 22.103%
Jurkat cells; HX103 5 µM, replicates n=1-3
  EGFR(+) HX103 (+) (%): 0.1% and 0.22% and -0.02%
Jurkat cells; Jurkat, AVE of n=3
  EGFR(+) HX103 (+) (%) AVE: 0.1%
  HX103 (+) (%) AVE: 0.05667%
Jurkat cells; Jurkat, replicates n=1-3
  EGFR(+) HX103 (+) (%): -0.02% and 0.1% and 0.22%
  HX103(+) (%): 0.07% and 0.01% and 0.09%
